Assay results from patent US10978281B2, “Method to obtain unbiased identification of interaction of test compounds with the proteome” (Institute for Systems Biology, priority 2015, dated 2021).

Tests used:
Rv0289/EspG3 = Rv0289/EspG3 (Mycobacterium tuberculosis, UniProt P9WJC7)
DHFR (Rv2763c) = DHFR (Rv2763c) (Mycobacterium tuberculosis, UniProt P9WNX1); assay type: binding; settings: melting curve, M. tuberculosis lysate; Tm of DHFR without P218 is 57° C.
Chain of DHFR (Rv2763c) (P9WNX1 whole entry): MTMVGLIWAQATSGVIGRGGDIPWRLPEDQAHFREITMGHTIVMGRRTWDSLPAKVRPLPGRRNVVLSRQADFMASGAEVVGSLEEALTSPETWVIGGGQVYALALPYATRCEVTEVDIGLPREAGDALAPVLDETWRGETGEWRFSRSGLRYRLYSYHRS

Chain of Rv0289/EspG3 (P9WJC7 whole entry): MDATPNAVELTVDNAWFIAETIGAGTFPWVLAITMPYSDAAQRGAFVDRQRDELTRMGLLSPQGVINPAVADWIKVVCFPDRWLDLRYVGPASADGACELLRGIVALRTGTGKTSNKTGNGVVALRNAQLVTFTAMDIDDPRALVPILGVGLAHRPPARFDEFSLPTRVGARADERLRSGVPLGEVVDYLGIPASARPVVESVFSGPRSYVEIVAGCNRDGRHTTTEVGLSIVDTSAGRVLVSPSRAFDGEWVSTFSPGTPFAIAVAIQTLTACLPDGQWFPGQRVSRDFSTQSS

In the case of `CCc1nc(N)nc(N)c1OCCCOc1ccccc1CCC(=O)O` [P218], the “difference in the Tm values in the presence and absence of compound” value (Rv0289/EspG3) is reported as “no difference” and the “temperature at the inflection point (Tm) of DHFR in the presence of P218” value (DHFR (Rv2763c)) is reported as 60.9 °C.
